Data published in patent publication US9656963B2 (BRISTOL-MYERS SQUIBB COMPANY, priority 2012, dated 2017).

target: T1, hGPR40 (Homo sapiens, UniProt O14842); test: FDSS-Based Intracellular Calcium Assay; assay type: cell-based; settings: cells expressing GPR40, intracellular Ca2+ response
T1 construct: 3x FLAG; expressed in transfected cells
Protocol: FDSS-Based Intracellular Calcium Assay
Cell lines expressing GPR40 are generated using the pDEST 3× flag gene expression system and are cultured in culture medium comprising the following components: F12 (Gibco #11765), 10% lipid deprived fetal bovine serum, 250 μg/ml zeocin and 500 μg/ml G418. To conduct the fluorescent imaging plate reader (FLIPR)-based calcium flux assay to measure intracellular Ca^2+ response, cells expressing GPR40 are plated on 384 well plates (BD Biocoat #356697) at a density of 20,000 cells/20 μL medium per well in phenol red and serum-free DMEM (Gibco #21063-029) and incubated overnight. […] Compounds are dissolved in DMSO and diluted to desired concentrations with assay buffer and added to the cells as 3x solution (20 μL per well). Run fluorescence/luminescence reader FDSS (Hamamatsu) to read intracellular Ca^2+ response.

T1 sequence (O14842 whole entry): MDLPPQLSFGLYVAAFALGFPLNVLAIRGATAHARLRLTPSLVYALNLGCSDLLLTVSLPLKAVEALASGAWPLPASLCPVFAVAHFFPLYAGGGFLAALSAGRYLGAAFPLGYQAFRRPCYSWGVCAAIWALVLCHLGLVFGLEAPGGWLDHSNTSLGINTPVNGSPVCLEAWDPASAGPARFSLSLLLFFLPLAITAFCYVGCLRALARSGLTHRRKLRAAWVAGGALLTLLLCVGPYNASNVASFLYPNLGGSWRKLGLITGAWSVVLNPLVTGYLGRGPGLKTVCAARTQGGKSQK

Going from `COc1ccc(F)c(-c2ccc(Cc3ccc(N4N=C(C(F)(F)F)C(CC5CC5)C4CC(=O)O)cc3)c(C)c2)c1` (single isomer, unassigned) [Example 46, Isomer 2, 2-(4-(cyclopropylmethyl)-1-(4-((2′-fluoro-5′-methoxy-3-methylbiphenyl-4-yl)methyl)phenyl)-3-(trifluoromethyl)-4,5-dihydro-1H-pyrazol-5-yl)acetic acid] to `COc1ccc(F)c(-c2ccc(Cc3ccc(N4N=C(C(F)(F)F)C(CO)C4CC(=O)O)cc3)c(C)c2)c1` (single isomer, unassigned) [Example 53, Isomer 1, 2-(1-(4-((2′-fluoro-5′-methoxy-3-methyl-[1,1′-biphenyl]-4-yl)methyl)phenyl)-4-(hydroxymethyl)-3-(trifluoromethyl)-4,5-dihydro-1H-pyrazol-5-yl)acetic acid, trans-diastereomer], the EC50 falls from 1910 nM to 170 nM (11-fold).

Compared with `Cc1cc(-c2ccncc2)ccc1Cc1ccc(N2N=C(C(F)(F)F)[C@@H](C)[C@@H]2CC(=O)O)cc1` [Example 78, 2-((4S,5S)-4-methyl-1-(4-(2-methyl-4-(pyridin-4-yl)benzyl)phenyl)-3-(trifluoromethyl)-4,5-dihydro-1H-pyrazol-5-yl)acetic acid], `CCC1C(C(F)(F)F)=NN(c2ccc(Cc3ccc(-c4cc(OC)ccc4F)cc3C)cc2)C1CC(=O)O` (single isomer, unassigned) [Example 44, Isomer 2, 2-(4-ethyl-1-(4-((2′-fluoro-5′-methoxy-3-methylbiphenyl-4-yl)methyl)phenyl)-3-(trifluoromethyl)-4,5-dihydro-1H-pyrazol-5-yl)acetic acid] is 420-fold lower in EC50: 8330 nM for the first, 20 nM for the second.

First: COc1ccc(F)c(-c2ccc(Cc3ccc(N4N=C(c5cc(C)on5)[C@@H](C)[C@@H]4CC(=O)O)cc3)c(C)c2)c1 (single isomer, unassigned) [Example 69, isomer 1]
Second: COCC1C(C(F)(F)F)=NN(c2ccc(Cc3ccc(-c4cc(OC)ccc4F)cc3C)cc2)C1CC(=O)O (single isomer, unassigned) [Example 48, Isomer 1, 2-(1-(4-((2′-fluoro-5′-methoxy-3-methylbiphenyl-4-yl)methyl)phenyl)-4-(methoxymethyl)-3-(trifluoromethyl)-4,5-dihydro-1H-pyrazol-5-yl)acetic acid]
The EC50 of the first is 3-fold lower: 57 nM for the first, 170 nM for the second. The first is the more potent here.

First: COc1ccc(F)c(-c2ccc(Cc3ccc(N4N=C(C(F)(F)F)C(C5CC5)C4CC(=O)O)cc3)c(C)c2)c1 (single isomer, unassigned) [Example 43, Isomer 2, 2-(4-cyclopropyl-1-(4-((2′-fluoro-5′-methoxy-3-methylbiphenyl-4-yl)methyl)phenyl)-3-(trifluoromethyl)-4,5-dihydro-1H-pyrazol-5-yl)acetic acid]
Second: COc1ccc(F)c(-c2ccc(Cc3ccc(N4N=C(C(F)(F)F)C(CC5CC5)C4CC(=O)O)cc3)c(C)c2)c1 (single isomer, unassigned) [Example 46, Isomer 1, 2-(4-(cyclopropylmethyl)-1-(4-((2′-fluoro-5′-methoxy-3-methylbiphenyl-4-yl)methyl)phenyl)-3-(trifluoromethyl)-4,5-dihydro-1H-pyrazol-5-yl)acetic acid]
The EC50 of the first is 1.8-fold higher: 90 nM for the first, 50 nM for the second. The second is the more potent here.

First: COc1ccc(F)c(-c2ccc(Cc3ccc(N4N=C(C(F)(F)F)CC4CC(=O)O)cc3)c(F)c2)c1 (single isomer, unassigned) [Example 19, Isomer 2, 2-(1-(4-((2′,3-difluoro-5′-methoxybiphenyl-4-yl)methyl)phenyl)-3-(trifluoromethyl)-4,5-dihydro-1H-pyrazol-5-yl)acetic acid]
Second: COc1ccc(F)c(-c2ccc(Cc3ccc(N4N=C(C(F)(F)F)CC4CC(=O)O)cc3)cc2C)c1 (single isomer, unassigned) [Example 22, Isomer 1, 2-(1-(4-((2′-fluoro-5′-methoxy-2-methylbiphenyl-4-yl)methyl)phenyl)-3-(trifluoromethyl)-4,5-dihydro-1H-pyrazol-5-yl)acetic acid]
The EC50 of the first is 8.6-fold lower: 90 nM for the first, 770 nM for the second.

Compared with `COc1cc(-c2ccc(Cc3ccc(N4N=C(C(F)(F)F)CC4CC(=O)O)cc3)c(C)c2)c(F)cn1` (single isomer, unassigned) [Example 27, Isomer 2, 2-(1-(4-(4-(5-fluoro-2-methoxypyridin-4-yl)-2-methylbenzyl)phenyl)-3-(trifluoromethyl)-4,5-dihydro-1H-pyrazol-5-yl)acetic acid], `COc1ccc(F)c(-c2ccc(Cc3ccc(N4N=C(C(F)(F)F)CC4CC(=O)O)cc3)c(F)c2)c1` (single isomer, unassigned) [Example 19, Isomer 1, 2-(1-(4-((2′,3-difluoro-5′-methoxybiphenyl-4-yl)methyl)phenyl)-3-(trifluoromethyl)-4,5-dihydro-1H-pyrazol-5-yl)acetic acid] is 3.9-fold higher in EC50: 150 nM for the first, 580 nM for the second.

Going from `N#CC1=NN(c2ccc(OCc3ccc(Cl)cc3Cl)cc2)C(CC(=O)O)C1` (racemic) [Example 33, 2-(3-cyano-1-(4-(2,4-dichlorobenzyloxy)phenyl)-4,5-dihydro-1H-pyrazol-5-yl)acetic acid] to `O=C(O)CC1CC(C(F)(F)F)=NN1c1ccc(OCc2ccc(Cl)cc2Cl)cc1` (racemic) [Example 2, 2-(1-(4-(2,4-dichlorobenzyloxy)phenyl)-3-(trifluoromethyl)-4,5-dihydro-1H-pyrazol-5-yl)acetic acid], the EC50 rises from 300 nM to 800 nM (2.7-fold). The first is the more potent here.

Compared with `COc1ccc(F)c(-c2ccc(Cc3ccc(N4N=C(C(F)(F)F)C(CC#N)C4CC(=O)O)cc3)c(C)c2)c1` (single isomer, unassigned) [Example 54, Isomer 2, 2-(4-(cyanomethyl)-1-(4-((2′-fluoro-5′-methoxy-3-methyl-[1,1′-biphenyl]-4-yl)methyl)phenyl)-3-(trifluoromethyl)-4,5-dihydro-1H-pyrazol-5-yl)acetic acid, trans-diastereomer], `COc1ccc(F)c(-c2ccc(Oc3ccc(N4N=C(C(F)(F)F)CC4CC(=O)O)cc3)c(C)c2)c1` (single isomer, unassigned) [Example 14, Isomer 1, 2-(1-(4-(2′-fluoro-5′-methoxy-3-methylbiphenyl-4-yloxy)phenyl)-3-(trifluoromethyl)-4,5-dihydro-1H-pyrazol-5-yl)acetic acid] is 6.7-fold lower in EC50: 1100 nM for the first, 165 nM for the second.

Going from `CC(C)c1ccccc1Oc1ccc(N2N=C(C#N)CC2CC(=O)O)cc1` (racemic) [Example 29, 2-(3-cyano-1-(4-(2-isopropylphenoxy)phenyl)-4,5-dihydro-1H-pyrazol-5-yl)acetic acid] to `Cc1ccccc1Oc1ccc(N2N=C(C#N)CC2CC(=O)O)cc1` (single isomer, unassigned) [Example 3, Isomer 1, 2-(3-cyano-1-(4-(o-tolyloxy)phenyl)-4,5-dihydro-1H-pyrazol-5-yl)acetic acid], the EC50 falls from 430 nM to 37 nM (12-fold).

Going from `COc1ccc(F)c(-c2ccc(Oc3ccc(N4N=C(c5ncco5)CC4CC(=O)O)cc3)c(C)c2)c1` (single isomer, unassigned) [Example 8, Isomer 1, 2-(1-(4-(2′-fluoro-5′-methoxy-3-methylbiphenyl-4-yloxy)phenyl)-3-(oxazol-2-yl)-4,5-dihydro-1H-pyrazol-5-yl)acetic acid] to `COc1ccc(F)c(-c2ccc(Oc3ccc(N4N=C(C#N)CC4CC(=O)O)cc3)c(C)c2)c1` (racemic) [Example 32, 2-(3-cyano-1-(4-(2′-fluoro-5′-methoxy-3-methylbiphenyl-4-yloxy)phenyl)-4,5-dihydro-1H-pyrazol-5-yl)acetic acid], the EC50 falls from 910 nM to 190 nM (4.8-fold).

Going from `COc1cccc(-c2ccc(Oc3ccc(N4N=C(C(F)(F)F)CC4CC(=O)O)cc3)c(C)c2)c1` (single isomer, unassigned) [Example 9, Isomer 1, 2-(1-(4-(3′-methoxy-3-methylbiphenyl-4-yloxy)phenyl)-3-(trifluoromethyl)-4,5-dihydro-1H-pyrazol-5-yl)acetic acid] to `Cc1ccccc1Oc1ccc(N2N=C(C(F)(F)F)CC2CC(=O)O)cc1` (single isomer, unassigned) [Example 11, Isomer 2, 2-(1-(4-(o-tolyloxy)phenyl)-3-(trifluoromethyl)-4,5-dihydro-1H-pyrazol-5-yl)acetic acid], the EC50 rises from 190 nM to 1850 nM (9.7-fold). The first is the more potent here.

`Cc1cc(Cc2ccc(N3N=C(C(F)(F)F)CC3CC(=O)O)cc2)ccc1-c1cc(OC(F)(F)F)ccc1Cl` (racemic) [Example 25, 2-(1-(4-((2′-chloro-2-methyl-5′-(trifluoromethoxy)biphenyl-4-yl)methyl)phenyl)-3-(trifluoromethyl)-4,5-dihydro-1H-pyrazol-5-yl)acetic acid] and `COc1cccc(-c2ccc(Oc3ccc(N4N=C(C(F)(F)F)CC4CC(=O)O)cc3)c(C)c2)c1` (single isomer, unassigned) [Example 9, Isomer 2, 2-(1-(4-(3′-methoxy-3-methylbiphenyl-4-yloxy)phenyl)-3-(trifluoromethyl)-4,5-dihydro-1H-pyrazol-5-yl)acetic acid] are within 1.5-fold of each other in EC50: 280 nM for the first, 290 nM for the second.

Going from `COc1cccc(-c2ccc(Cc3ccc(N4N=C(C#N)CC4CC(=O)O)cc3)c(C)c2)c1` (racemic) [Example 38, 2-(3-cyano-1-(4-((3′-methoxy-3-methylbiphenyl-4-yl)methyl)phenyl)-4,5-dihydro-1H-pyrazol-5-yl)acetic acid] to `COc1ccc(F)c(-c2ccc(Cc3ccc(N4N=C(C(F)(F)F)C(CC#N)C4CC(=O)O)cc3)c(C)c2)c1` (single isomer, unassigned) [Example 54, isomer 1, 2-(4-(cyanomethyl)-1-(4-((2′-fluoro-5′-methoxy-3-methyl-[1,1′-biphenyl]-4-yl)methyl)phenyl)-3-(trifluoromethyl)-4,5-dihydro-1H-pyrazol-5-yl)acetic acid, trans-diastereomer], the EC50 rises from 190 nM to 380 nM (2-fold). The first is the more potent here.
